ChEMBL document CHEMBL1132124 (Bioorg Med Chem Lett, 1999)

Test system: not listed separately; call rule not given here
Test: In vitro maximal effect on [3H]-MK 801 binding to NMDA receptor as compared to a basal value of 100%

**Q.** For `N[C@H](CO)C(=O)O`, which ME is on record?
**A.** 169%

**Q.** For `NCC(=O)O`, which ME is on record?
**A.** 159%

**Q.** With `C[C@@H]1CN(O)C(=O)[C@@H]1N` as the compound, how does the ME read?
**A.** 18%

**Q.** With `O=C1CNCN1O` as the compound, how does the ME read?
**A.** 146%

**Q.** Which ME does the source give for `N[C@@H]1CONC1=O` here?
**A.** 122%

Target: T1, Glutamate receptor ionotropic, NMDA 1 (Rattus norvegicus, UniProt P35439)
Test: In vitro inhibitory activity to inhibit [3H]glycine binding to NMDA receptor; IA means inactive

**Q.** With `CC1ONC(=O)C1N` (stereo not drawn) as the compound, how does the IC50 read?
**A.** Not Active

**Q.** Which IC50 does the source give for `O=C1CNCN1` here?
**A.** Not Active

**Q.** Which IC50 does the source give for `NC1CCONC1=O` (stereo not drawn) here?
**A.** Not Active

**Q.** For `NC1CS(=O)(=O)NC1=O` (stereo not drawn), which IC50 is on record?
**A.** Not Active

**Q.** With `O=C1CCNCN1O` as the compound, how does the IC50 read?
**A.** Not Active

**Q.** For `O=C1CCCN1O`, which IC50 is on record?
**A.** Not Active

**Q.** For `CC1NC(C)N(O)C1=O` (stereo not drawn), which IC50 is on record?
**A.** Not Active

Target: T1, Glutamate receptor ionotropic, NMDA 1
Test: In vitro inhibitory activity to inhibit [3H]glycine binding to NMDA receptor

**Q.** Which IC50 does the source give for `CC1NCN(O)C1=O` (stereo not drawn) here?
**A.** 78 µM

**Q.** Which IC50 does the source give for `CC1NCC(=O)N1O` (stereo not drawn) here?
**A.** 83 µM

**Q.** Which IC50 does the source give for `O=C1C(CO)NCN1O` (stereo not drawn) here?
**A.** 78 µM

**Q.** With `C[C@@H]1CN(O)C(=O)[C@@H]1N` as the compound, how does the IC50 read?
**A.** 1.87 µM

Target: Glutamate NMDA receptor
Test: In vitro concentration eliciting half-maximal effect on [3H]-MK 801 radioligand binding to NMDA receptor
Format: protein-complex assay

**Q.** For `C[C@@H]1CN(O)C(=O)[C@@H]1N`, which EC50 is on record?
**A.** 9.5 µM

**Q.** With `O=C1CNCN1O` as the compound, how does the EC50 read?
**A.** 4.33 µM
